PubChem BioAssay (NCI)
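Five compound concentrations were applied to cells in 96-well plates for 48 hours; endpoints were derived by simple linear interpolation of the resulting dose-response curve. At the GI50, growth is halved. TGI marks complete inhibition of growth.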

Legend:
Test in all cases: NCI anticancer screen, dose series, 48 h
[1] = test system: SK-OV-3 ovarian
[2] = test system: MDA-MB-435
[3] = test system: A498 renal
[4] = test system: MCF7 breast
[5] = test system: BT-549 breast
[6] = test system: SF-295 CNS
[7] = test system: RPMI-8226 leukemia
[8] = test system: A549 NSCLC
[9] = test system: SK-MEL-5 melanoma
[10] = test system: M14 melanoma
[11] = test system: U251 CNS
[12] = test system: NCI-H23 lung
[13] = test system: CCRF-CEM leukemia
[14] = test system: UO-31 renal
[15] = test system: SNB-19 CNS
[16] = test system: HT29 colon
[17] = test system: LOX IMVI melanoma
[18] = test system: UACC-257 melanoma
[19] = test system: MDA-MB-231 breast
[20] = test system: 786-0 renal
[21] = test system: OVCAR-8 ovarian
[22] = test system: MDA-MB-468 breast
[23] = test system: ACHN renal
[24] = test system: NCI-H522 lung
[25] = test system: SW-620 colon
[26] = test system: COLO 205 colon
[27] = test system: HCC-2998 colon
[28] = test system: HL-60(TB) leukemia
[29] = test system: MOLT-4 leukemia
[30] = test system: HCT-15 colon
[31] = test system: SK-MEL-2 melanoma
[32] = test system: HCT-116 colon
[33] = test system: OVCAR-5 ovarian
[34] = test system: KM12 colon
[35] = test system: UACC-62 melanoma
[36] = test system: RXF 393 renal
[37] = test system: HOP-62 NSCLC
[38] = test system: HOP-92 NSCLC
[39] = test system: OVCAR-4 ovarian
[40] = test system: T-47D breast
[41] = test system: PC-3 prostate
[42] = test system: EKVX NSCLC
[43] = test system: SN12C renal
[44] = test system: TK-10 renal
[45] = test system: CAKI-1 renal
[46] = test system: SR leukemia
[47] = test system: MALME-3M melanoma
[48] = test system: SF-539 CNS
[49] = test system: DU-145 prostate
[50] = test system: HS 578T breast
[51] = test system: SNB-75 CNS
[52] = test system: NCI-H460 lung
[53] = test system: IGROV1 ovarian
[54] = test system: NCI-H226 lung
[55] = test system: OVCAR-3 ovarian
[56] = test system: SF-268 CNS
[57] = test system: K-562 leukemia
[58] = test system: SK-MEL-28 melanoma

Q: Which results are given for COc1ccc2nc(Cl)c(-c3cc(-c4ccccc4)nc(=O)[nH]3)cc2c1?
A: GI50 [1]: 20.9 µM; TGI [1]: 51.2 µM; GI50 [2]: 14.8 µM; TGI [2]: 34.1 µM; GI50 [3]: 26.1 µM; TGI [3]: 74.3 µM; GI50 [4]: 4.22 µM; TGI [4]: 31.6 µM; GI50 [5]: 11.9 µM; TGI [5]: 28.7 µM; GI50 [6]: 21.3 µM; TGI [6]: 67.2 µM; GI50 [7]: 3.08 µM; TGI [7]: 13.5 µM; GI50 [8]: 20.7 µM; TGI [8]: > 100 µM; GI50 [9]: 16.8 µM; TGI [9]: 31.5 µM; GI50 [10]: 18.5 µM; TGI [10]: 46.8 µM; GI50 [11]: 4.45 µM; TGI [11]: 19.9 µM; GI50 [12]: 12 µM; TGI [12]: 32.7 µM; GI50 [13]: 2.96 µM; TGI [13]: 34.3 µM; GI50 [14]: 10.5 µM; TGI [14]: 22.4 µM; GI50 [15]: 10.7 µM; TGI [15]: 26 µM; GI50 [16]: 18.3 µM; TGI [16]: 40.8 µM; GI50 [17]: 3.86 µM; TGI [17]: 33.5 µM; GI50 [18]: 18.1 µM; TGI [18]: 37.6 µM; GI50 [19]: 16.7 µM; TGI [19]: 43.7 µM; GI50 [20]: 12.4 µM; TGI [20]: 40.2 µM; GI50 [21]: 16.6 µM; TGI [21]: 88.8 µM; GI50 [22]: 11.4 µM; TGI [22]: 33.8 µM; GI50 [23]: 14.7 µM; TGI [23]: 32.3 µM; GI50 [24]: 17 µM; TGI [24]: 42.4 µM; GI50 [25]: 6.44 µM; TGI [25]: 35.1 µM; GI50 [26]: 17 µM; TGI [26]: 41.5 µM; GI50 [27]: 16.5 µM; TGI [27]: 31.8 µM; GI50 [28]: 5.32 µM; TGI [28]: 33 µM; GI50 [29]: 3.63 µM; TGI [29]: 54.1 µM; GI50 [30]: 6.66 µM; TGI [30]: 33.6 µM; GI50 [31]: 18.5 µM; TGI [31]: 40.9 µM; GI50 [32]: 6.67 µM; TGI [32]: 26.2 µM; GI50 [33]: 18.2 µM; TGI [33]: 38.1 µM; GI50 [34]: 4.25 µM; TGI [34]: 17.1 µM; GI50 [35]: 13.8 µM; TGI [35]: 28.6 µM; GI50 [36]: 13.3 µM; TGI [36]: 33 µM; GI50 [37]: 14.8 µM; TGI [37]: 34.4 µM; GI50 [38]: 6.8 µM; TGI [38]: 42.5 µM; GI50 [39]: 20.4 µM; TGI [39]: 79.9 µM; GI50 [40]: 25.8 µM; TGI [40]: > 100 µM; GI50 [41]: 14.2 µM; TGI [41]: 56 µM; GI50 [42]: 24 µM; TGI [42]: > 100 µM; GI50 [43]: 19.4 µM; TGI [43]: 59 µM; GI50 [44]: 29 µM; TGI [44]: > 100 µM; GI50 [45]: 12 µM; TGI [45]: 28.9 µM; GI50 [46]: 1.55 µM; TGI [46]: 5.47 µM; GI50 [47]: 15.9 µM; TGI [47]: 31.9 µM; GI50 [48]: 11.2 µM; TGI [48]: 23.9 µM; GI50 [49]: 8.82 µM; TGI [49]: 29.3 µM; GI50 [50]: 24.8 µM; TGI [50]: > 100 µM; GI50 [51]: 13.1 µM; TGI [51]: 37.1 µM; GI50 [52]: 5.69 µM; TGI [52]: 20.6 µM; GI50 [53]: 17.9 µM; TGI [53]: 44.1 µM; GI50 [54]: 12.7 µM; TGI [54]: 41.7 µM; GI50 [55]: 7.42 µM; TGI [55]: 23.8 µM; GI50 [56]: 14.6 µM; TGI [56]: 35 µM; GI50 [57]: 2.98 µM; TGI [57]: 59.2 µM; GI50 [58]: 15.9 µM; TGI [58]: 31 µM

Q: For COc1ccc(-c2nc3sc(-c4ccc(Cl)cc4)cn3n2)cc1, which GI50 [22] is on record?
A: 2.08 µM

Q: And the TGI [22]?
A: > 50 µM

Q: Which results are given for Cc1ccc(/C(=N\N=C(N)N)c2ccccc2)cc1?
A: GI50 [22]: 0.426 µM; TGI [22]: 5.83 µM

Q: For CN1CCN(c2ccc(NC(=O)c3nc4ccc5[nH]ncc5c4c4c3CCCC4)cc2C(F)(F)F)CC1, which GI50 [22] is on record?
A: 0.859 µM

Q: And the TGI [22]?
A: 1.98 µM

Q: Which results are given for COc1ccccc1/C=C/[N+](=O)[O-]?
A: GI50 [22]: 1.65 µM; TGI [22]: 3.6 µM

Q: With CCCCCCCNc1nc(C(=O)OCC)ncc1-c1ccc(C(F)(F)F)cc1 as the compound, how does the GI50 [22] read?
A: 23.4 µM

Q: What about the TGI [22] of the same compound?
A: 93.1 µM

Q: With CC1(C)CC[C@H](Nc2ncc(C(F)(F)F)c(-c3c[nH]c4c(P(C)(C)=O)c(C#N)ccc34)n2)CN1 as the compound, how does the GI50 [22] read?
A: 1.22 µM

Q: What about the TGI [22] of the same compound?
A: 5.11 µM

Q: What does the source list for Cc1c(S(C)(=O)=O)c(-c2cc(F)cc(N3CCN(c4ccc(NS(=O)(=O)c5ccc(N[C@H](CCN6CCC(C(=O)OCCCP(=O)(O)O)CC6)CSc6ccccc6)c(S(=O)(=O)C(F)(F)F)c5)cc4)CC3)c2)c(-c2ccc(Cl)cc2)n1C(C)C?
A: GI50 [22]: > 100 µM; TGI [22]: > 100 µM

Q: What does the source list for COc1ccc(N2Cc3cnc(Nc4ccccc4)nc3N([C@@H]3CC[C@@H](O)C3)C2=O)cc1?
A: GI50 [22]: 6.65 µM; TGI [22]: > 25 µM

Q: For Cc1cc(/C=C\c2ccc3ccccc3[n+]2C)c(O)c2ncccc12, which GI50 [22] is on record?
A: 0.316 µM

Q: What about the TGI [22] of the same compound?
A: 2.23 µM

Q: Which GI50 [22] does the source give for O=Nc1c(-c2c(O)[nH]c3ccc([N+](=O)[O-])cc23)[nH]c2ccc(O)cc12 here?
A: 0.359 µM

Q: What about the TGI [22] of the same compound?
A: 2.85 µM

Q: How did the GI50 [22] turn out when O=C(/C=C/C12c3ccccc3C(c3ccccc31)C1C(=O)N(c3ccccc3)C(=O)C12)c1ccccc1 (configuration not stated) was run?
A: 1.87 µM

Q: What about the TGI [22] of the same compound?
A: 7.71 µM

Q: What does the source list for Oc1ccc(C(c2ccc(O)cc2)c2ccc(Cl)cn2)cc1?
A: GI50 [22]: 0.116 µM; TGI [22]: 0.577 µM

Q: Which GI50 [22] does the source give for CCn1c(C(=O)N(C2CC2)C2CC2)cc2c3c(ncn3C)c(Nc3cc(C)n(C)n3)nc21 here?
A: > 100 µM

Q: What about the TGI [22] of the same compound?
A: > 100 µM
